Laboratory results reported in patent US6566334B1, “Short amphipathic peptides with activity against bacteria and intracellular pathogens” (priority 1997, dated 2003).
Where a SMILES comes first, the peptide text is derived from it. [ ]: non-standard residue; d: D form. Ac6c = NC1(C(=O)O)CCCCC1; Api = NC1(C(=O)O)CCNCC1; Aib = CC(C)(N)C(=O)O

Tests used:
[1] = test system: Escherichia coli, ATCC 25922; conditions: for Peptide minimum inhibitory concentration, E. coli: MIC after 4 h, median of 3-7 tests, corrected for actual peptide concentration
[2] = test system: Staphylococcus aureus, ATCC 25723; conditions: for Peptide minimum inhibitory concentration, S. aureus: MIC after 4 h, median of 3-7 tests, corrected for actual peptide concentration
[3] = test system: B. abortus infected BALB/c mice; conditions: mouse, in vivo
trypsin = trypsin (Sus scrofa, UniProt P00761); assay: Resistance to trypsin, E. coli MIC assay after trypsin incubation; conditions: trypsin 20 min at 37° C., then MIC assay with E. coli
[4] = Circular dichroism (CD) in SDS micelles, percent helicity; format: physicochemical
B. abortus strain 2308 = test system: B. abortus strain 2308; set-up: species or system BALB/c mice; conditions: mouse, in vivo; for % Bacterial Reduction: iv
[5] = test system: Murine macrophages infected with virulent B. abortus, strain 2308; format: cell-based, BALB/c mice
in vitro = conditions: BALB/c, mouse, normal (non-infected) primary murine peritoneal macrophages, Normal Macrophage Survival Rate
Solubility in water = conditions: without any organic modifier present
[6] = test system: Normal murine macrophages; conditions: 10 μM

Sequence of trypsin (P00761 9-231): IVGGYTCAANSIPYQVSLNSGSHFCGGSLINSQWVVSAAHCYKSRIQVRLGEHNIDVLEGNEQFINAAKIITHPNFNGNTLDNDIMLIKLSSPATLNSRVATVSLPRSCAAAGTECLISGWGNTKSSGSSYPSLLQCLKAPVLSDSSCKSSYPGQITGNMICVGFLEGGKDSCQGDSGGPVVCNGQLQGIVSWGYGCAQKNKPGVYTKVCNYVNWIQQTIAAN

Molecule: NCCCC[C@H](NC(=O)[C@H](CCCCN)NC(=O)C1(NC(=O)C2(NC(=O)[C@H](CCCCN)NC(=O)C3(NC(=O)C4(NC(=O)[C@H](CCCCN)NC(=O)[C@@H](N)CCCCN)CCCCC4)CCCCC3)CCCCC2)CCCCC1)C(=O)NC1(C(N)=O)CCCCC1 [Ch-10, H—LysLysChChLysChChLysLysCh—NH2] (H-KK[Ac6c][Ac6c]K[Ac6c][Ac6c]KK[Ac6c]-NH2)
- Peptide minimum inhibitory concentration, E. coli [1]: 5.7 µM
- Peptide minimum inhibitory concentration, S. aureus [2]: 2.8 µM
- Stress or death of infected mice after treatment [3]: died immediately after treatment
- Survival of infected mice after treatment [3]: lived
- Effect of incubation with trypsin on antibacterial activity (trypsin): did not decrease antibacterial activity

Molecule: NCCCC[C@H](NC(=O)[C@H](CCCCN)NC(=O)C1(NC(=O)C2(NC(=O)[C@H](CCCCN)NC(=O)C3(NC(=O)C4(NC(=O)[C@H](CCCCN)NC(=O)[C@@H](N)CCCCN)CCCCC4)CCCCC3)CCCCC2)CCCCC1)C(=O)NC1(C(=O)NC2(C(N)=O)CCCCC2)CCCCC1 [Ch-11, H—LysLysChChLysChChLysLysChCh—NH2] (H-KK[Ac6c][Ac6c]K[Ac6c][Ac6c]KK[Ac6c][Ac6c]-NH2)
- Peptide minimum inhibitory concentration, E. coli [1]: 5.2 µM
- Peptide minimum inhibitory concentration, S. aureus [2]: 2.6 µM

Molecule: CC(C)(N)C(=O)NC(C)(C)C(=O)NC1(C(=O)N[C@@H](CCCCN)C(=O)NC(C)(C)C(=O)NC(C)(C)C(=O)NC2(C(=O)N[C@@H](CCCCN)C(=O)NC(C)(C)C(=O)NC(C)(C)C(N)=O)CCNCC2)CCNCC1 [Pi-10, H—AibAibApiLysAibAibApiLysAibAib—NH2] (H-[Aib][Aib][Api]K[Aib][Aib][Api]K[Aib][Aib]-NH2)
- % Helicity (% α helix) ([4]; CD, 25 mM SDS micelles, 100-200 μM peptide): 43%
- Reduction of bacterial load compared to controls (in words) (B. abortus strain 2308): significantly reduced bacterial load
- % Bacterial Reduction (B. abortus strain 2308): 90%
- Infected Macrophage Survival Rate [5]: 55.0 ± 1.00
- Antibacterial activity against E. coli (in words) [1]: good antibacterial activity
- Antibacterial activity against S. aureus (in words) [2]: moderate activity
- viability at 1 h, 0.1 µM (in vitro): 95%
- viability at 1 h, 1 µM (in vitro): 89%
- viability at 1 h, 10 µM (in vitro): 90%
- viability at 1 h, 50 µM (in vitro): 68%
- Solubility in water (Solubility in water): readily soluble in water
- Effect of incubation with trypsin on antibacterial activity (trypsin): did not decrease antibacterial activity

Molecule: CC(C)(NC(=O)[C@H](CCCCN)NC(=O)C(C)(C)NC(=O)C(C)(C)NC(=O)C1(N)CCNCC1)C(=O)NC(C)(C)C(=O)N[C@@H](CCCCN)C(=O)NC(C)(C)C(=O)NC(C)(C)C(=O)NC1(C(N)=O)CCNCC1 [Ipi-10, H—ApiAibAibLysAibAibLysAibAibApi—NH2] (H-[Api][Aib][Aib]K[Aib][Aib]K[Aib][Aib][Api]-NH2)
- 222/206 intensity ratio (CD) ([4]; in the presence of SDS micelles): 0.32
- % Bacterial Reduction (B. abortus strain 2308): 55%
- Stress or death of infected mice after treatment [3]: did not die, but showed physiological signs of stress
- Solubility in water (Solubility in water): readily soluble in water
- Effect of incubation with trypsin on antibacterial activity (trypsin): did not decrease antibacterial activity

Molecule: CC(=O)NC(C)(C)C(=O)NC(C)(C)C(=O)NC1(C(=O)N[C@@H](CCCCN)C(=O)NC(C)(C)C(=O)NC(C)(C)C(=O)NC2(C(=O)N[C@@H](CCCCN)C(=O)NC(C)(C)C(=O)NC(C)(C)C(N)=O)CCNCC2)CCNCC1 [Pi-10-ac, Ac—AibAibApiLysAibAibApiLysAibAib—NH2] (Ac-[Aib][Aib][Api]K[Aib][Aib][Api]K[Aib][Aib]-NH2)
- Stress or death of infected mice after treatment [3]: died immediately after treatment
- viability at 1 h, 0.1 µM (in vitro): 92%
- viability at 1 h, 1 µM (in vitro): 89%
- viability at 1 h, 10 µM (in vitro): 88%
- viability at 1 h, 50 µM (in vitro): 49%

Molecule: H-GIGKFLHSAKKFGKAFVGEIMNS-OH [magainin 2, reference compound]
- Effect of incubation with trypsin on antibacterial activity (trypsin): destroyed antibacterial activity

Molecule: CC(C)(NC(=O)C(C)(C)NC(=O)[C@H](CCCCN)NC(=O)[C@H](CCCCN)NC(=O)C(C)(C)NC(=O)C(C)(C)NC(=O)[C@H](CCCCN)NC(=O)C(C)(C)NC(=O)C(C)(C)NC(=O)[C@H](CCCCN)NC(=O)[C@H](CCCCN)NC(=O)C(C)(C)NC(=O)C(C)(C)NC(=O)[C@@H](N)CCCCN)C(N)=O [Ai-14, H—LysAibAibLysLysAibAibLysAibAibLysLysAibAib—NH2] (H-K[Aib][Aib]KK[Aib][Aib]K[Aib][Aib]KK[Aib][Aib]-NH2)
- Peptide minimum inhibitory concentration, E. coli [1]: 5.5 µM
- Peptide minimum inhibitory concentration, S. aureus [2]: 11 µM
- viability at 1 h, 0.1 µM (in vitro): 91%
- viability at 1 h, 1 µM (in vitro): 88%
- viability at 1 h, 10 µM (in vitro): 88%
- viability at 1 h, 50 µM (in vitro): 57%
- Effect of incubation with trypsin on antibacterial activity (trypsin): did not decrease antibacterial activity

Molecule: NCCCC[C@H](NC(=O)[C@H](CCCCN)NC(=O)C1(NC(=O)C2(NC(=O)[C@H](CCCCN)NC(=O)C3(NC(=O)C4(NC(=O)[C@H](CCCCN)NC(=O)[C@H](CCCCN)NC(=O)C5(NC(=O)C6(NC(=O)[C@@H](N)CCCCN)CCCCC6)CCCCC5)CCCCC4)CCCCC3)CCCCC2)CCCCC1)C(=O)NC1(C(N)=O)CCCCC1 [Ch-13, H—LysChChLysLysChChLysChChLysLysCh—NH2] (H-K[Ac6c][Ac6c]KK[Ac6c][Ac6c]K[Ac6c][Ac6c]KK[Ac6c]-NH2)
- Peptide minimum inhibitory concentration, E. coli [1]: 6.5 µM
- Peptide minimum inhibitory concentration, S. aureus [2]: 2.2 µM
- Stress or death of infected mice after treatment [3]: died immediately after treatment
- Survival of infected mice after treatment [3]: lived
- Effect of incubation with trypsin on antibacterial activity (trypsin): did not decrease antibacterial activity

Molecule: H-KAAKKAAKAAKKAA-NH2 [Al-14, H—LysAlaAlaLysLysAlaAlaLysAlaAlaLysLysAlaAla—NH2, reference compound]
- % Bacterial Reduction (B. abortus strain 2308): −6%
- Peptide minimum inhibitory concentration, E. coli [1]: >178 µM
- Peptide minimum inhibitory concentration, S. aureus [2]: >178 µM

Molecule: CC(=O)N[C@@H](CCCCN)C(=O)N[C@@H](CCCCN)C(=O)NC(C)(C)C(=O)NC(C)(C)C(=O)N[C@@H](CCCCN)C(=O)NC(C)(C)C(=O)NC(C)(C)C(=O)N[C@@H](CCCCN)C(=O)N[C@@H](CCCCN)C(=O)NC(C)(C)C(=O)NC(C)(C)C(N)=O [Ai-11-ac, Ac—LysLysAibAibLysAibAibLysLysAibAib—NH2] (Ac-KK[Aib][Aib]K[Aib][Aib]KK[Aib][Aib]-NH2)
- Peptide minimum inhibitory concentration, E. coli [1]: 6.6 µM
- Peptide minimum inhibitory concentration, S. aureus [2]: 212 µM
- Effect of peptide treatment on normal macrophages (in words) [6]: small effect
- viability at 1 h, 0.1 µM (in vitro): 92%
- viability at 1 h, 1 µM (in vitro): 82%
- viability at 1 h, 10 µM (in vitro): 86%
- viability at 1 h, 50 µM (in vitro): 58.5%
- Effect of incubation with trypsin on antibacterial activity (trypsin): did not decrease antibacterial activity

Molecule: CC(C)(NC(=O)C(C)(C)NC(=O)[C@H](CCCCN)NC(=O)[C@H](CCCCN)NC(=O)C(C)(C)NC(=O)C(C)(C)NC(=O)[C@H](CCCCN)NC(=O)C(C)(C)NC(=O)C(C)(C)NC(=O)[C@H](CCCCN)NC(=O)[C@@H](N)CCCCN)C(N)=O [Ai-11, H—LysLysAibAibLysAibAibLysLysAibAib—NH2] (H-KK[Aib][Aib]K[Aib][Aib]KK[Aib][Aib]-NH2)
- Peptide minimum inhibitory concentration, E. coli [1]: 55 µM
- Peptide minimum inhibitory concentration, S. aureus [2]: >220 µM
- Effect of peptide treatment on normal macrophages (in words) [6]: small effect
- viability at 1 h, 0.1 µM (in vitro): 88%
- viability at 1 h, 1 µM (in vitro): 89%
- viability at 1 h, 10 µM (in vitro): 81%
- viability at 1 h, 50 µM (in vitro): 56.6%
- Effect of incubation with trypsin on antibacterial activity (trypsin): did not decrease antibacterial activity

Molecule: CC(=O)NC1(C(=O)NC(C)(C)C(=O)NC(C)(C)C(=O)N[C@@H](CCCCN)C(=O)NC(C)(C)C(=O)NC(C)(C)C(=O)N[C@@H](CCCCN)C(=O)NC(C)(C)C(=O)NC(C)(C)C(=O)NC2(C(N)=O)CCNCC2)CCNCC1 [Ipi-10-ac, Ac—ApiAibAibLysAibAibLysAibAibApi—NH2] (Ac-[Api][Aib][Aib]K[Aib][Aib]K[Aib][Aib][Api]-NH2)
- Stress or death of infected mice after treatment [3]: did not die, but showed physiological signs of stress

Molecule: H-KWKVFKKIEKMGRNIRNGIVKAGPAIAVLGEAKAL-NH2 [cecropin B, reference compound]
- Effect of incubation with trypsin on antibacterial activity (trypsin): destroyed antibacterial activity
